Laboratory results: patent publication US4772586A, “Novel derivatives of arginine vasopressin antagonists” (Medical College of Ohio, priority 1986, dated 1988)
Bridges are numbered along the chain shown (N, C = ends). Where no end group is shown, it is not given here.

Tests used:
Assay type in all cases: in vivo
[1] = system: vasopressor response; experiment: Vasopressor (VP) agonistic activity; conditions: Table 1; vasopressor agonism; ^+ = weak partial agonistic activity not clearly related to dose
[2] = system: ethanol-anesthesized water-loaded rats; experiment: Activity as antidiuretic agonists, intravenous injection; conditions: for Agonistic Activities ADH: Table 1, antidiuretic agonism, i.v., ^+ = weak partial agonistic activity not clearly related to dose
Experimental: Activity as antidiuretic agonists was determined by intravenous injection of the compounds being evaluated in ethanol-anesthesized water-loaded rats in accordance with Sawyer, Endocrinology, vol. 63 (1958) at 694. Antagonism of the antidiuretic response to subsequent injections of arginine vasopressin was tested by the method of Sawyer et al., Science, vol. 212 (1981) at 49.

[3] = system: vasopressor response to arginine vasopressin; experiment: Antagonism to the vasopressor response (Anti-VP); conditions: Table 1
Summary of the method: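 In vivo antagonism of arginine vasopressin pressor response per Dyckes et al. Effective dose (nmol/kg) is the antagonist dose making the response to 2x agonist units, injected 20 min later, equal that to 1x units. pA2 is the negative log of effective dose divided by 67 ml/kg distribution volume.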

| Molecule | Agonistic Activities VP [1] | Agonistic Activities ADH [2] [units/mg] | antidiuretic character in vivo ([2]; Table 1 footnote b) | Anti-VP ED ([3]; effective dose) [nmol/kg] | Anti-VP pA2 ([3]; estimated in vivo pA2) |
| --- | --- | --- | --- | --- | --- |
| NC(=O)CC[C@@H]1NC(=O)[C@H](Cc2ccccc2)NC(=O)[C@H](Cc2ccc(O)cc2)NC(=O)[C@@H](N)CSSC[C@@H](C(=O)N2CCC[C@H]2C(=O)N[C@@H](CCCN=C(N)N)C(=O)NCC(N)=O)NC(=O)[C@H](CC(N)=O)NC1=O [AVP, arginine vasopressin] | 382 ± 5 units/mg | 330 ± 23 | – | – | – |
| deamido-arginine vasopressin (CYFQNCPRG-OH; disulfide 1-6 (inferred); ends not checked; UniProt P01185 20-28, looked up) [AVP-acid, purchased from Bachem, Inc; alternatively, vasopressinoic acid] | < 0.03 units/mg | 4.7 ± 0.6 | antidiuretic agonist in vivo | – | – |
| 9-desglycinamide-arginine vasopressin (CYFQNCPR; disulfide 1-6 (inferred); ends not checked; UniProt P01185 20-27, looked up, fragment) [desGly^9 (NH2)AVP] | ~ 0.02 units/mg | 5.6 ± 1.1 | – | – | – |
| 9-desglycine-argoinine vasopressin (CYFQNCPR; disulfide 1-6 (inferred); ends not checked; UniProt P01185 20-27, looked up, fragment) [desGly^9 AVP] | < 0.05 units/mg | 164 ± 4 | – | 68 ± 16 | 6.09 ± 0.10 |
